Where only a bound is given, the exact number is not on record here.

One may read the IC50 as the concentration needed to halve the response being measured.

T1 sequence (Q9BUB5 1-424 isoform Q9BUB5-2 T344D): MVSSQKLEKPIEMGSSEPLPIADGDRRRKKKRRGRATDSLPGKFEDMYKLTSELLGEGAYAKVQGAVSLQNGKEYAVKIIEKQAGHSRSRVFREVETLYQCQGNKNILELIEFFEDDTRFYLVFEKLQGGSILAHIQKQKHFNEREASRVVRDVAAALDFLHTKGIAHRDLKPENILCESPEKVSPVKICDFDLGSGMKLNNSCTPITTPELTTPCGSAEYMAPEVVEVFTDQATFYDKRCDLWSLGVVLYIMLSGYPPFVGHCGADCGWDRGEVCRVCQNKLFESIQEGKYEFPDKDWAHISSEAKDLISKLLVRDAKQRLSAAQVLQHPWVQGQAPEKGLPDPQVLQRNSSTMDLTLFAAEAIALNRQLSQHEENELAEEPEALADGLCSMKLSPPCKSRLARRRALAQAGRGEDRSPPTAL

The assay concerns the target T1, human full-length MKNK1 (Homo sapiens, UniProt Q9BUB5, T385D).
T1 construct: GST (N); purchased Carna Biosciences 02-145; host or cells: insect cells (baculovirus expression system)
The assay is described as follows: MKNK1 kinase high ATP assay (TR-FRET). In kind it is biochemical. To be noted: high ATP (2 mM final), 15 min preincubation with enzyme, 30 min reaction at 22° C. The procedure: MKNK1-inhibitory activity at high ATP of compounds of the present invention after their preincubation with MKNK1 was quantified employing the TR-FRET-based MKNK1 high ATP assay as described in the following paragraphs.
A recombinant fusion protein of Glutathione-S-Transferase (GST, N-terminally) and human full-length MKNK1 (amino acids 1-424 and T344D of accession number BAA 19885.1), expressed in insect cells using baculovirus expression system and purified via glutathione sepharose affinity chromatography, was purchased from Carna Biosciences (product no 02-145) and used as enzyme. As substrate for the kinase reaction the biotinylated peptide biotin-Ahx-IKKRKLTRRKSLKG (C-terminus in amide form) was used, which can be purchased e.g. from the company Biosyntan (Berlin-Buch, Germany).
For the assay 50 nL of a 100 fold concentrated solution of the test compound in DMSO was pipetted into a black low volume 384 well microtiter plate (Greiner Bio-One, Frickenhausen, Germany), 2 μL of a solution of MKNK1 in aqueous assay buffer [50 mM HEPES pH 7.5, 5 mM MgCl2, 1.0 mM dithiothreitol, 0.005% (v/v) Nonidet-P40 (Sigma)] was added and the mixture was incubated for 15 min at 22° C. to allow pre-binding of the test compounds to the enzyme before the start of the kinase reaction. Then the kinase reaction was started by the addition of 3 μL of a solution of adenosine-tri-phosphate (ATP, 3.3 mM=>final conc. in the 5 μL assay volume is 2 mM) and substrate (0.1 μM=>final conc. in the 5 μL assay volume is 0.06 μM) in assay buffer and the resulting mixture was incubated for a reaction time of 30 min at 22° C. The concentration of MKNK1 was adjusted depending of the activity of the enzyme lot and was chosen appropriate to have the assay in the linear range, typical concentrations were in the range of 0.003 μg/mL. The reaction was stopped by the addition of 5 μL of a solution of TR-FRET detection reagents (5 nM streptavidine-XL665 [Cisbio Bioassays, Codolet, France] and 1 nM anti-ribosomal protein S6 (pSer236)-antibody from Invitrogen [#44921G] and 1 nM LANCE EU-W1024 Labeled ProteinG [Perkin-Elmer, product no. AD0071]) in an aqueous EDTA-solution (100 mM EDTA, 0.1% (w/v) bovine serum albumin in 50 mM HEPES pH 7.5).
The resulting mixture was incubated for 1 h at 22° C. to allow the formation of complex between the phosphorylated biotinylated peptide and the detection reagents. Subsequently the amount of phosphorylated substrate was evaluated by measurement of the resonance energy transfer from the Eu-chelate to the streptavidine-XL. Therefore, the fluorescence emissions at 620 nm and 665 nm after excitation at 350 nm were measured in a TR-FRET reader, e.g. a Rubystar (BMG Labtechnologies, Offenburg, Germany) or a Viewlux (Perkin-Elmer). The ratio of the emissions at 665 nm and at […] was taken as the measure for the amount of phosphorylated substrate. The data were normalised (enzyme reaction without inhibitor=0% inhibition, all other assay components but no enzyme=100% inhibition).
The molecule `Cc1c[nH]c2ncnc(Nc3cc4cn[nH]c4cc3OC(C)C)c12` [Example 38, 5-Methyl-N-[6-(propan-2-yloxy)-1H-indazol-5-yl]-7H-pyrrolo[2,3-d]pyrimidin-4-amine] gave an IC50 of 1 nM.

As to `CC(C)Oc1cc2[nH]ncc2cc1Nc1ncnc2[nH]cc(C(=O)N3CCN(C)CC3)c12` [Example 29, (4-Methylpiperazin-1-yl)(4-{[6-(propan-2-yloxy)-1H-indazol-5-yl]amino}-7H-pyrrolo[2,3-d]pyrimidin-5-yl)methanone], 117 nM corresponded to half-maximal inhibition (IC50).

Molecule `COc1cc2[nH]ncc2cc1Nc1ncnc2[nH]c(C(=O)N3CCOCC3)c(Br)c12` [Example 58, {5-Bromo-4-[(6-methoxy-1H-indazol-5-yl)amino]-7H-pyrrolo[2,3-d]pyrimidin-6-yl}(morpholin-4-yl)methanone] showed a half-inhibitory concentration (IC50) of 2 nM. Compared with the last molecule, the IC50 is about 58-fold lower.

Molecule `N#Cc1n[nH]c2ccc(Nc3ncnc4[nH]ccc34)cc12` [Example 43, 5-(7H-Pyrrolo[2,3-d]pyrimidin-4-ylamino)-1H-indazole-3-carbonitrile] showed a half-maximal inhibitory concentration (IC50) of 1340 nM.

Molecule `COc1cc2[nH]ncc2cc1Nc1ncnc2[nH]cc(C(F)(F)F)c12` [Example 49, N-(6-Methoxy-1H-indazol-5-yl)-5-(trifluoromethyl)-7H-pyrrolo[2,3-d]pyrimidin-4-amine] showed a half-inhibitory concentration (IC50) of 16 nM.

Turning to `CC(C)NC(=O)c1c[nH]c2ncnc(Nc3cc4cn[nH]c4cc3F)c12` [Example 18, 4-[(6-Fluoro-1H-indazol-5-yl)amino]-N-(propan-2-yl)-7H-pyrrolo[2,3-d]pyrimidine-5-carboxamide], the IC50 is 9 nM.

In turn, `FC(F)(F)c1n[nH]c2ccc(Nc3ncnc4[nH]ccc34)cc12` [Example 7, N-[3-(trifluoromethyl)-1H-indazol-5-yl]-7H-pyrrolo[2,3-d]pyrimidin-4-amine] had an IC50 of 179 nM.

Molecule `CCCc1[nH]c2ncnc(Nc3cc4cn[nH]c4cc3OC)c2c1CC` [Example 46, 5-Ethyl-N-(6-methoxy-1H-indazol-5-yl)-6-propyl-7H-pyrrolo[2,3-d]pyrimidin-4-amine] had a half-inhibitory concentration (IC50) of 2 nM.

Regarding `COc1cc2[nH]ncc2cc1Nc1ncnc2[nH]c(C(=O)N3CCCC3)c(Br)c12` [Example 61, {5-Bromo-4-[(6-methoxy-1H-indazol-5-yl)amino]-7H-pyrrolo[2,3-d]pyrimidin-6-yl}(pyrrolidin-1-yl)methanone], 1 nM corresponded to half-maximal inhibition (IC50).

With `CCOC(=O)c1[nH]c2ncnc(Nc3cc4cn[nH]c4cc3OC)c2c1Br` [Example 47, Ethyl 5-bromo-4-[(6-methoxy-1H-indazol-5-yl)amino]-7H-pyrrolo[2,3-d]pyrimidine-6-carboxylate], the IC50 is < 1 nM.

Consider `Cc1cc2[nH]ncc2cc1Nc1ncnc2[nH]cc(C(=O)NC(C)C)c12` [Example 14, 4-[(6-Methyl-1H-indazol-5-yl)amino]-N-(propan-2-yl)-7H-pyrrolo[2,3-d]pyrimidine-5-carboxamide], for which it took 34 nM to reach half-maximal inhibition (IC50).

Turning to `CCOC(=O)c1[nH]c2ncnc(Nc3cc4cn[nH]c4cc3OC(C)C)c2c1Br` [Example 63, Ethyl 5-bromo-4-{[6-(propan-2-yloxy)-1H-indazol-5-yl]amino}-7H-pyrrolo[2,3-d]pyrimidine-6-carboxylate], the IC50 came to 1 nM.

Molecule `Cc1cc2[nH]ncc2cc1Nc1ncnc2[nH]cc(C(=O)N(C)C)c12` [Example 12, N,N-Dimethyl-4-[(6-methyl-1H-indazol-5-yl)amino]-7H-pyrrolo[2,3-d]pyrimidine-5-carboxamide] gave a concentration for half-maximal inhibition (IC50) of 211 nM.

In the case of `COc1cc2[nH]ncc2cc1Nc1ncnc2[nH]c(Br)cc12` [Example 20, 6-Bromo-N-(6-methoxy-1H-indazol-5-yl)-7H-pyrrolo[2,3-d]pyrimidin-4-amine], the 50% inhibitory concentration (IC50) turned out to be 13 nM.

In turn, `COc1cc2[nH]ncc2cc1Nc1ncnc2[nH]c(Cl)cc12` [Example 41, 6-Chloro-N-(6-methoxy-1H-indazol-5-yl)-7H-pyrrolo[2,3-d]pyrimidin-4-amine] gave an IC50 of 21 nM. Compared with the last molecule, the IC50 is about 1.6-fold higher.

For `CCCc1[nH]c2ncnc(Nc3cc4cn[nH]c4cc3OC(C)C)c2c1CC` [Example 45, 5-Ethyl-N-[6-(propan-2-yloxy)-1H-indazol-5-yl]-6-propyl-7H-pyrrolo[2,3-d]pyrimidin-4-amine], inhibition was half-maximal at 21 nM (IC50).

As to `CC(C)Oc1cc2[nH]ncc2cc1Nc1ncnc2[nH]cc(C(=O)O)c12` [Example 28, 4-{[6-(Propan-2-yloxy)-1H-indazol-5-yl]amino}-7H-pyrrolo[2,3-d]pyrimidine-5-carboxylic acid], inhibition was half-maximal at 184 nM (IC50).

Turning to `CC(C)Oc1cc2[nH]ncc2cc1Nc1ncnc2[nH]c(Br)cc12` [Example 36, 6-Bromo-N-[6-(propan-2-yloxy)-1H-indazol-5-yl]-7H-pyrrolo[2,3-d]pyrimidin-4-amine], the IC50 was determined as 34 nM.

With `COc1cc2[nH]ncc2cc1Nc1ncnc2[nH]c(C(=O)N3CCC3)c(Br)c12` [Example 66, Azetidin-1-yl{5-bromo-4-[(6-methoxy-1H-indazol-5-yl)amino]-7H-pyrrolo[2,3-d]pyrimidin-6-yl}methanone], the half-inhibitory concentration (IC50) is 2 nM.

Turning to `COc1cc2[nH]ncc2cc1Nc1ncnc2[nH]c(C(=O)NCC(=O)N(C)C)c(Br)c12` [Example 68, 5-Bromo-N-[2-(dimethylamino)-2-oxoethyl]-4-[(6-methoxy-1H-indazol-5-yl)amino]-7H-pyrrolo[2,3-d]pyrimidine-6-carboxamide], the midpoint of inhibition, the IC50, lay at 14 nM.

The molecule `CC(C)Oc1cc2[nH]ncc2cc1Nc1ncnc2[nH]ccc12` [Example 24, N-[6-(Propan-2-yloxy)-1H-indazol-5-yl]-7H-pyrrolo[2,3-d]pyrimidin-4-amine] had an IC50 of 26 nM.

As to `CC(C)Oc1cc2[nH]ncc2cc1Nc1ncnc2[nH]cc(C(=O)N(C)C)c12` [Example 30, N,N-Dimethyl-4-{[6-(propan-2-yloxy)-1H-indazol-5-yl]amino}-7H-pyrrolo[2,3-d]pyrimidine-5-carboxamide], 141 nM corresponded to half-maximal inhibition (IC50).

Molecule `COc1cc2[nH]ncc2cc1Nc1ncnc2[nH]cc(Br)c12` [Example 19, 5-Bromo-N-(6-methoxy-1H-indazol-5-yl)-7H-pyrrolo[2,3-d]pyrimidin-4-amine] had a half-inhibitory concentration (IC50) of 1 nM.

Regarding `COc1cc2[nH]ncc2cc1Nc1ncnc2[nH]c(C#CCO)cc12` [Example 22, 3-{4-[(6-Methoxy-1H-indazol-5-yl)amino]-7H-pyrrolo[2,3-d]pyrimidin-6-yl}prop-2-yn-1-ol], the IC50 worked out at 11 nM.

`CC(C)Oc1cc2[nH]ncc2cc1Nc1ncnc2[nH]c(C#CCO)cc12` [Example 32, 3-(4-{[6-(Propan-2-yloxy)-1H-indazol-5-yl]amino}-7H-pyrrolo[2,3-d]pyrimidin-6-yl)prop-2-yn-1-ol] yielded an IC50 of 14 nM.

The molecule `CCc1[nH]c2ncnc(Nc3cc4cn[nH]c4cc3OC)c2c1C` [Example 1, 6-Ethyl-N-(6-methoxy-1H-indazol-5-yl)-5-methyl-7H-pyrrolo[2,3-d]pyrimidin-4-amine] showed an IC50 of 3 nM.

`CC(C)Oc1cc2[nH]ncc2cc1Nc1ncnc2[nH]c(CCCO)cc12` [Example 33, 3-(4-{[6-(Propan-2-yloxy)-1H-indazol-5-yl]amino}-7H-pyrrolo[2,3-d]pyrimidin-6-yl)propan-1-ol] showed an IC50 of 35 nM.

`CC(C)Oc1cc2[nH]ncc2cc1Nc1ncnc2[nH]c(S(C)(=O)=O)cc12` [Example 54, 6-(Methylsulfonyl)-N-[6-(propan-2-yloxy)-1H-indazol-5-yl]-7H-pyrrolo[2,3-d]pyrimidin-4-amine] displayed an IC50 of 37 nM.

The record behind these values is patent US20150252047A1, “SUBSTITUTED INDAZOL-PYRROLOPYRIMIDINES USEFUL IN THE TREATMENT OF HYPERPROLIFERATIVE DISEASES” (BAYER PHARMA AKTIENGESELLSCHAFT, priority 2012, published 2015).
